Assay results taken from ChEMBL document CHEMBL2440076, “New triarylpyrazoles as broad-spectrum anticancer agents: design, synthesis, and biological evaluation” (Eur J Med Chem, 2013).

What was measured:
Format in all cases: functional
COLO 205 = assay: Growth inhibition of human COLO205 cells assessed as cell growth at 5X10'-5 M after 48 hrs by sulforhodamine B assay; settings: COLO 205, 48 h, read-out: Activity
MOLT-4 [1] = assay: Growth inhibition of human MOLT4 cells assessed as cell growth at 5X10'-5 M after 48 hrs by sulforhodamine B assay; settings: MOLT-4, 48 h, read-out: Activity
CCRF-CEM = assay: Growth inhibition of human CCRF-CEM cells assessed as cell growth at 5X10'-5 M after 48 hrs by sulforhodamine B assay; settings: read-out: Activity
MDA-MB-468 = assay: Growth inhibition of human MDA-MB-468 cells assessed as cell growth at 5X10'-6 M after 48 hrs by sulforhodamine B assay; settings: MDA-MB-468, 48 h, read-out: Activity
OVCAR-3 = assay: Growth inhibition of human OVCAR3 cells assessed as cell growth at 5X10'-6 M after 48 hrs by sulforhodamine B assay; settings: OVCAR-3, 48 h, read-out: Activity
IGROV-1 [2] = assay: Growth inhibition of human IGROV1 cells assessed as cell growth at 5X10'-6 M after 48 hrs by sulforhodamine B assay; settings: IGROV-1, 48 h, read-out: Activity
SK-MEL-28 = assay: Growth inhibition of human SK-MEL-28 cells assessed as cell growth at 5X10'-6 M after 48 hrs by sulforhodamine B assay; settings: SK-MEL-28, 48 h, read-out: Activity
SR [3] = assay: Growth inhibition of human SR cells assessed as cell growth at 5X10'-9 M after 48 hrs by sulforhodamine B assay; settings: read-out: Activity
RPMI-8226 = assay: Growth inhibition of human RPMI8226 cells assessed as cell growth at 5X10'-9 M after 48 hrs by sulforhodamine B assay; settings: RPMI-8226, 48 h, read-out: Activity
KM12 = assay: Growth inhibition of human KM12 cells assessed as cell growth at 5X10'-6 M after 48 hrs by sulforhodamine B assay; settings: KM12, 48 h, read-out: Activity
NCI-H460 = assay: Growth inhibition of human NCI-H460 cells assessed as cell growth at 5X10'-6 M after 48 hrs by sulforhodamine B assay; settings: NCI-H460, 48 h, read-out: Activity
SR [4] = assay: Growth inhibition of human SR cells assessed as cell growth at 5X10'-6 M after 48 hrs by sulforhodamine B assay; settings: read-out: Activity
K562 = assay: Growth inhibition of human K562 cells assessed as cell growth at 5X10'-6 M after 48 hrs by sulforhodamine B assay; settings: K562, 48 h, read-out: Activity
BT-549 = assay: Growth inhibition of human BT549 cells assessed as cell growth at 5X10'-7 M after 48 hrs by sulforhodamine B assay; settings: BT-549, 48 h, read-out: Activity
SK-OV-3 [5] = assay: Growth inhibition of human SKOV3 cells assessed as cell growth at 5X10'-7 M after 48 hrs by sulforhodamine B assay; settings: SK-OV-3, 48 h, read-out: Activity
IGROV-1 [6] = assay: Growth inhibition of human IGROV1 cells assessed as cell growth at 5X10'-7 M after 48 hrs by sulforhodamine B assay; settings: IGROV-1, 48 h, read-out: Activity
UACC-257 = assay: Growth inhibition of human UACC257 cells assessed as cell growth at 5X10'-7 M after 48 hrs by sulforhodamine B assay; settings: UACC-257, 48 h, read-out: Activity
SF-268 [7] = assay: Growth inhibition of human SF268 cells assessed as cell growth at 5X10'-7 M after 48 hrs by sulforhodamine B assay; settings: SF-268, 48 h, read-out: Activity
NCI-H322M = assay: Growth inhibition of human NCI-H322M cells assessed as cell growth at 5X10'-7 M after 48 hrs by sulforhodamine B assay; settings: read-out: Activity
MOLT-4 [8] = assay: Growth inhibition of human MOLT4 cells assessed as cell growth at 5X10'-7 M after 48 hrs by sulforhodamine B assay; settings: MOLT-4, 48 h, read-out: Activity
HL-60(TB) = assay: Growth inhibition of human HL-60(TB) cells assessed as cell growth at 5X10'-7 M after 48 hrs by sulforhodamine B assay; settings: HL-60, 48 h, read-out: Activity
MDA-MB-231 = assay: Growth inhibition of human MDA-MB-231 cells assessed as cell growth at 5X10'-8 M after 48 hrs by sulforhodamine B assay; settings: MDA-MB-231, 48 h, read-out: Activity
DU-145 = assay: Growth inhibition of human DU145 cells assessed as cell growth at 5X10'-8 M after 48 hrs by sulforhodamine B assay; settings: DU-145, 48 h, read-out: Activity
UO-31 = assay: Growth inhibition of human UO31 cells assessed as cell growth at 5X10'-8 M after 48 hrs by sulforhodamine B assay; settings: UO-31, 48 h, read-out: Activity
SK-OV-3 [9] = assay: Growth inhibition of human SKOV3 cells assessed as cell growth at 5X10'-8 M after 48 hrs by sulforhodamine B assay; settings: SK-OV-3, 48 h, read-out: Activity
OVCAR-4 [10] = assay: Growth inhibition of human OVCAR4 cells assessed as cell growth at 5X10'-8 M after 48 hrs by sulforhodamine B assay; settings: OVCAR-4, 48 h, read-out: Activity
LOX IMVI = assay: Growth inhibition of human LOXIMVI cells assessed as cell growth at 5X10'-8 M after 48 hrs by sulforhodamine B assay; settings: read-out: Activity
U-251 = assay: Growth inhibition of human U251 cells assessed as cell growth at 5X10'-8 M after 48 hrs by sulforhodamine B assay; settings: U-251, 48 h, read-out: Activity
SF-268 [11] = assay: Growth inhibition of human SF268 cells assessed as cell growth at 5X10'-8 M after 48 hrs by sulforhodamine B assay; settings: SF-268, 48 h, read-out: Activity
SN12C = assay: Growth inhibition of human SN12C cells assessed as cell growth at 5X10'-5 M after 48 hrs by sulforhodamine B assay; settings: read-out: Activity
ACHN = assay: Growth inhibition of human ACHN cells assessed as cell growth at 5X10'-5 M after 48 hrs by sulforhodamine B assay; settings: read-out: Activity
[12] = Growth inhibition of human HCC2998 cells assessed as cell growth at 5X10'-8 M after 48 hrs by sulforhodamine B assay; settings: HCC 2998, 48 h, read-out: Activity
NCI-H522 = assay: Growth inhibition of human NCI-H522 cells assessed as cell growth at 5X10'-8 M after 48 hrs by sulforhodamine B assay; settings: NCI-H522, 48 h, read-out: Activity
MOLT-4 [13] = assay: Growth inhibition of human MOLT4 cells assessed as cell growth at 5X10'-8 M after 48 hrs by sulforhodamine B assay; settings: MOLT-4, 48 h, read-out: Activity
RXF 393 = assay: Growth inhibition of human RXF393 cells assessed as cell growth at 5X10'-9 M after 48 hrs by sulforhodamine B assay; settings: RXF 393, 48 h, read-out: Activity
OVCAR-4 [14] = assay: Growth inhibition of human OVCAR4 cells assessed as cell growth at 5X10'-9 M after 48 hrs by sulforhodamine B assay; settings: OVCAR-4, 48 h, read-out: Activity
M14 = assay: Growth inhibition of human M14 cells assessed as cell growth at 5X10'-9 M after 48 hrs by sulforhodamine B assay; settings: M14, 48 h, read-out: Activity

SMILES	growth at 50 µM (COLO 205) [%]	growth at 50 µM (MOLT-4 [1]) [%]	growth at 50 µM (CCRF-CEM) [%]	growth at 5 µM (MDA-MB-468) [%]	growth at 5 µM (OVCAR-3) [%]	growth at 5 µM (IGROV-1 [2]) [%]	growth at 5 µM (SK-MEL-28) [%]	growth at 0.005 µM (SR [3]) [%]	growth at 0.005 µM (RPMI-8226) [%]	growth at 5 µM (KM12) [%]	growth at 5 µM (NCI-H460) [%]	growth at 5 µM (SR [4]) [%]	growth at 5 µM (K562) [%]	growth at 0.5 µM (BT-549) [%]	growth at 0.5 µM (SK-OV-3 [5]) [%]	growth at 0.5 µM (IGROV-1 [6]) [%]	growth at 0.5 µM (UACC-257) [%]	growth at 0.5 µM (SF-268 [7]) [%]	growth at 0.5 µM (NCI-H322M) [%]	growth at 0.5 µM (MOLT-4 [8]) [%]	further results
COc1cc(-c2nn(-c3cccc(NC(=O)Nc4ccc(Cl)c(Cl)c4)c3)cc2-c2ccncc2)ccc1Cl	-94	-19	2	-29	-34	-17	1	99	96	-24	4	-26	5	97	105	90	83	89	89	78	growth at 0.5 µM (HL-60(TB)): 98%; growth at 0.05 µM (MDA-MB-231): 89%; growth at 0.05 µM (DU-145): 110%; growth at 0.05 µM (UO-31): 88%; growth at 0.05 µM (SK-OV-3 [9]): 106%; growth at 0.05 µM (OVCAR-4 [10]): 94%; growth at 0.05 µM (LOX IMVI): 101%; growth at 0.05 µM (U-251): 93%; growth at 0.05 µM (SF-268 [11]): 102%; growth at 50 µM (SN12C): 10%; growth at 50 µM (ACHN): 5%; growth at 0.05 µM [12]: 100%; growth at 0.05 µM (NCI-H522): 101%; growth at 0.05 µM (MOLT-4 [13]): 113%; growth at 0.005 µM (RXF 393): 97%; growth at 0.005 µM (OVCAR-4 [14]): 96%; growth at 0.005 µM (M14): 100%
COc1cc(-c2nn(-c3cccc(NC(=O)Nc4cccc(C(F)(F)F)c4)c3)cc2-c2ccncc2)ccc1Cl	-89	-17	3	-33	-42	-22	-18	93	98	-37	-11	-24	3	91	102	85	83	87	82	74	growth at 0.5 µM (HL-60(TB)): 85%; growth at 0.05 µM (MDA-MB-231): 99%; growth at 0.05 µM (DU-145): 101%; growth at 0.05 µM (UO-31): 79%; growth at 0.05 µM (SK-OV-3 [9]): 99%; growth at 0.05 µM (OVCAR-4 [10]): 96%; growth at 0.05 µM (LOX IMVI): 95%; growth at 0.05 µM (U-251): 98%; growth at 0.05 µM (SF-268 [11]): 93%; growth at 50 µM (SN12C): -7%; growth at 50 µM (ACHN): -7%; growth at 0.05 µM [12]: 98%; growth at 0.05 µM (NCI-H522): 91%; growth at 0.05 µM (MOLT-4 [13]): 92%; growth at 0.005 µM (RXF 393): 100%; growth at 0.005 µM (OVCAR-4 [14]): 99%; growth at 0.005 µM (M14): 96%
COc1cc(-c2nn(-c3cccc(NC(=O)Nc4cc(C(F)(F)F)cc(C(F)(F)F)c4)c3)cc2-c2ccncc2)ccc1Cl	-95	-11	-8	-42	-69	-42	-78	102	99	-71	-41	-9	-10	98	95	76	82	87	83	77	growth at 0.5 µM (HL-60(TB)): 75%; growth at 0.05 µM (MDA-MB-231): 95%; growth at 0.05 µM (DU-145): 111%; growth at 0.05 µM (UO-31): 94%; growth at 0.05 µM (SK-OV-3 [9]): 103%; growth at 0.05 µM (OVCAR-4 [10]): 92%; growth at 0.05 µM (LOX IMVI): 105%; growth at 0.05 µM (U-251): 94%; growth at 0.05 µM (SF-268 [11]): 105%; growth at 50 µM (SN12C): -45%; growth at 50 µM (ACHN): -34%; growth at 0.05 µM [12]: 105%; growth at 0.05 µM (NCI-H522): 103%; growth at 0.05 µM (MOLT-4 [13]): 105%; growth at 0.005 µM (RXF 393): 98%; growth at 0.005 µM (OVCAR-4 [14]): 95%; growth at 0.005 µM (M14): 105%
